In patent US6821980B1, “Substituted 5-benzyl-2,4-diaminopyrimidines” (Basilea Pharmaceutica AG, priority 1999, dated 2004):
≈ marks a conversion by molar mass, not a printed value. Read-outs that look alike come from different tables or passages of the source.

What was measured:
[1] = biological target: purified DHFR of strain 157/4696 of Staphylococcus aureus (Staphylococcus aureus, UniProt P13955); test: biochemical
[2] = tested on: Staphylococcus aureus 101; test: MIC against Staphylococcus aureus 101; type: cell-based; details: Table 2; Staphylococcus aureus 101, MRSA- and trimethoprim-resistant; clinical isolate; read-out: MIC Sa101
[3] = tested on: Streptococcus pneumoniae 1/1; test: MIC against Streptococcus pneumoniae 1/1; type: cell-based
[4] = biological target: T1, purified DHFR of strain Sp1/1 of Streptococcus pneumoniae (Streptococcus pneumoniae serotype 4, UniProt Q54801); type: biochemical; details: Table 2; IC50 against purified DHFR of strain Sp1/1
T1 sequence (Q54801 1-168 I100L): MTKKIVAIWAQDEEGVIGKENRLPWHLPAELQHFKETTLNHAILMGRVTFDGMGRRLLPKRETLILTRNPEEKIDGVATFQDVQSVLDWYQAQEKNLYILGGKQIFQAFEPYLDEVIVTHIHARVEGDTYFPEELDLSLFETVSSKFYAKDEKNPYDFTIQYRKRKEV

[5] = Table 2, Streptococcus pneumoniae 1/1, trimethoprim- and penicillin-resistant, serotype 6, clinical isolate, read-out: MIC Sp1/1

Chain of purified DHFR of strain 157/4696 of Staphylococcus aureus (P13955 whole entry): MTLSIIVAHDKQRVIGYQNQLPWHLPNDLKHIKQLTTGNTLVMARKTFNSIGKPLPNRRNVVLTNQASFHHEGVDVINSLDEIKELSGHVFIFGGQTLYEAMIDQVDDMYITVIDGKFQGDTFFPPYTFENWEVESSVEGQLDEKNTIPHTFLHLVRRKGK

| SMILES | IC50 [1] [nM] | MIC [2] [µg/mL] | MIC [3, 5] [µg/mL] | IC50 [4] [nM] | MIC ([3]; Streptococcus pneumoniae, 1/1, read-out: MIC Sp1/1) [µg/mL] |
| --- | --- | --- | --- | --- | --- |
| CCOc1cc(Cc2cnc(N)nc2N)cc(OS(=O)(=O)C(C)C)c1-c1ccc2c(c1)OCO2 [Example 17-c, Propane-2-sulphonic acid 2-benzo[1.3]dioxol-5-yl-5-(2,4-diamino-pyrimidin-5-ylmethyl)-3-ethoxy-phenyl ester] | 180 | 2 (≈ 4.11 µM) | 2 (≈ 4.11 µM) | 33 |  |
| CCOc1cc(Cc2cnc(N)nc2N)cc(OCC)c1-c1ccc(N)cc1 [Example 04-c, 5-(4′-Amino-2,6-diethoxy-biphenyl-4-ylmethyl)-pyrimidine-2 4-diamine] | 700 | 8 (≈ 21.1 µM) | 4 (≈ 10.5 µM) | 40 |  |
| CCOc1cc(Cc2cnc(N)nc2N)cc(OS(=O)(=O)C(C)CC)c1-c1ccc(N)c(F)c1 (centres unmarked) [Example 35-b, Butane-2-sulphonic acid 4′-amino-4-(2,4-diamino-pyrimidin-5-ylmethyl)-6-ethoxy-3′-fluoro-biphenyl-2-yl ester] | 130 | 2 (≈ 4.09 µM) | 0.5 (≈ 1.02 µM) | 9 |  |
| CCOc1cc(Cc2cnc(N)nc2N)cc(OCC2CC2)c1-c1ccc(N)cc1 [Example 13-, 5-(4′-Amino-2-cyclopropylmethoxy-6-ethoxy-biphenyl-4-ylmethyl)-pyrimidine-2,4-diamine] | 1400 | 8 (≈ 19.7 µM) | 2 (≈ 4.93 µM) | 16 |  |
| CCOc1cc(Cc2cnc(N)nc2N)cc(OCC2(C)CC2)c1-c1ccc(O)cc1 [Example 08-o, 4′-(2,4-Diamino-pyrimidin-5-ylmethyl)-6′-ethoxy-2′-[(1-methyl-cyclopropyl)-methoxy]-biphenyl-4-ol] | 1400 | 4 (≈ 9.51 µM) | 2 (≈ 4.76 µM) | 51 |  |
| CCOc1cc(Cc2cnc(N)nc2N)cc(OCC2(CC#N)CC2)c1-c1cccc(N)c1 [Example 07-b, {1-[3′-Amino-4-(2,4-diamino-pyrimidin-5-ylmethyl)-6-ethoxy-biphenyl-2-yloxymethyl]-cydopropyl}-acetonitrile] | 950 | 8 (≈ 18 µM) | 2 (≈ 4.5 µM) | 36 |  |
| CCOc1cc(Cc2cnc(N)nc2N)cc(OCC(C)(C)COC)c1-c1ccc(OC)cc1 [Example 09-a, 5-[6-Ethoxy-4′-methoxy-2-(3-methoxy-2,2-dimethyl-propoxy)-biphenyl-4-ylmethyl]-pyrimidine-2,4-diamine] | 3100 | 8 (≈ 17.1 µM) | 4 (≈ 8.57 µM) | 90 |  |
| CCOc1cc(Cc2cnc(N)nc2N)cc(OS(=O)(=O)C(C)C)c1-c1ccc(OC(C)=O)cc1 [Example 58-, 4′-(2,4-Diamino-pyrimidin-5-ylmethyl)-6′-ethoxy-2′-(propane-2-sulphonyloxy)-biphenyl-4-yl acetate] | 55 | 2 | 2 | 32 |  |
| CCOc1cc(Cc2cnc(N)nc2N)cc(OS(=O)(=O)C2CC2)c1-c1ccc(NC)cc1 [Example 34-b, Cyclopropanesulphonic acid 4-(2,4-diamino-Ryrimidin-5-ylmethyl)-6-ethoxy-4′-methylamino-biphenyl-2-yl ester] | 210 | 2 (≈ 4.26 µM) | 1 (≈ 2.13 µM) | 11 |  |
| CCOc1cc(Cc2cnc(N)nc2N)cc(OS(=O)(=O)CC(C)C)c1-c1ccc(O)cc1 [Example 15-f, 2-Methyl-propane-1-sulphonic acid 4-(2,4-diamino-pyrimidin-5-ylmethyl)-6-ethoxy-4′-hydroxy-biphenyl-2-yl ester] | 380 | 4 (≈ 8.46 µM) | 0.5 (≈ 1.06 µM) | 6.7 |  |
| CCOc1cc(Cc2cnc(N)nc2N)cc(OS(=O)(=O)CC(C)C)c1-c1ccc(N)c(F)c1 [Example 36-b, 2-Methyl-propane-1-sulphonic acid 4′-amino-4-(2,4-diamino-pyrimidin-5-ylmethyl)-6-ethoxy-3′-fluoro-biphenyl-2-yl ester] | 230 | 8 (≈ 16.3 µM) | 0.5 (≈ 1.02 µM) | 5.8 |  |
| CCOc1cc(Cc2cnc(N)nc2N)cc(OS(=O)(=O)N(C)C)c1-c1ccc(N)c(C)c1 [Example 27-a, Dimethylsulphamic acid 4′-amino-4-(2,4-diamino-pyrimidin-5-ylmethyl)-6-ethoxy-3′-methyl-biphenyl-2-yl ester] | 220 | 2 (≈ 4.23 µM) | 1 (≈ 2.12 µM) | 22 |  |
| CCOc1cc(Cc2cnc(N)nc2N)cc(OS(=O)(=O)N(C)C2CC2)c1-c1cc(N)cc(F)c1 [Example 29-a, N-Cyclopropyl-N-methyl-sulphamic acid 3′-amino-4-(2,4-diamino-pyrimidin-5-ylmethyl)-6-ethoxy-5′-fluoro-biphenyl-2-yl ester] | 220 | 1 (≈ 1.99 µM) | 2 (≈ 3.98 µM) | 6.3 |  |
| CCOc1cc(Cc2cnc(N)nc2N)cc(OS(=O)(=O)N(C)C(C)C)c1-c1ccc(O)cc1 [Example 20-e, N-Isopropyl-N-methyl-sulphamic acid 4-(2,4-diamino-pvrimidin-5-ylmethyl)-6-ethoxy-4′-hydroxy-biphenyl-2-yl ester] | 160 | 2 (≈ 4.1 µM) | 2 (≈ 4.1 µM) | 14 |  |
| CCOc1cc(Cc2cnc(N)nc2N)cc(OCC)c1-c1cccc(N(C)C)c1 [Example 02-y, 5-(3′-Dimethylamino-2,6-diethoxy-biphenyl-4-ylmethyl)-pyrimidine-2,4-diamine] | 800 | 8 (≈ 19.6 µM) | 4 (≈ 9.82 µM) | 150 |  |
| CCOc1cc(Cc2cnc(N)nc2N)cc(OS(=O)(=O)C(C)CC)c1-c1ccc(O)cc1 (centres unmarked) [Example 15-g, Butane-2-sulphonic acid 4-(2,4-diamino-Dyrimidin-5-ylmethyl)-6-ethoxy-4′-hydroxy-biphenyl-2-yl ester] | 39 | 2 (≈ 4.23 µM) | 0.5 (≈ 1.06 µM) | 25 |  |
| CCOc1cc(Cc2cnc(N)nc2N)cc(OCC(F)(F)F)c1-c1cccc(N)c1 [Example 07-i, 5-[3′-Amino-6-ethoxy-2-(2,2,2-trifluoro-ethoxy)-biphenyl-4-ylmethyl]-pyrimidine-2,4-diamine] | 900 | 4 (≈ 9.23 µM) | 4 (≈ 9.23 µM) | 28 |  |
| CCOc1cc(Cc2cnc(N)nc2N)cc(OCC)c1-c1ccc(COCC(=O)N2CCCCC2)s1 [Example 03-c, 2-[5-[4-(2,4-Diamino-pyrimidin-5-ylmethyl)-2,6-diethoxy-phenyl]-thionhen-2-ylmethoxy]-1-piperidin-1-yl-ethanone] | 2000 | 8 (≈ 15.2 µM) | 2 (≈ 3.8 µM) | 11 |  |
| CCOc1cc(Cc2cnc(N)nc2N)cc(OS(C)(=O)=O)c1-c1cccc(N)c1 [Example 14-a, Methanesulphonic acid 3′-amino-4-(2,4-diamino-gyrimidin-5-ylmethyl)-6-ethoxy-biphenyl-2-yl ester] | 350 | 8 (≈ 18.6 µM) | 4 (≈ 9.31 µM) | 23 |  |
| CCCOc1cc(Cc2cnc(N)nc2N)cc(OCC)c1-c1ccc(OC)cc1 [Example 09-e, 5-(6-Ethoxy-4′-methoxy-2-propoxy-biphenyl-4-ylmethyl)-pyrimidine-2,4-diamine] | 1000 | 4 (≈ 9.79 µM) | 4 (≈ 9.79 µM) | 45 |  |
| CCOc1cc(Cc2cnc(N)nc2N)cc(OCC)c1-c1ccc(COCC(=O)N2CCSCC2)s1 [Example 03-b, 2-[5-[4-(2,4-Diamino-pyrimidin-5-ylmethyl)-2,6-diethoxy-phenyl]-thiophen-2-ylmethoxy]-1-thiomorpholin-4-yl-ethanone] | 1600 | 8 (≈ 14.7 µM) | 2 (≈ 3.68 µM) | 19 |  |
| CCOc1cc(Cc2cnc(N)nc2N)cc(OCC2CC2)c1-c1ccc(OC)cc1 [Example 09-d, 5-(2-Cyclopropylmethoxy-6-ethoxy-4′-methoxy-biphenyl-4-ylmethyl)-pyrimidine-2.4-diamine] | 1500 | 4 (≈ 9.51 µM) | 2 (≈ 4.76 µM) | 30 |  |
| CCOc1cc(Cc2cnc(N)nc2N)cc(OS(=O)(=O)N(C)CC)c1-c1ccc(N)c(C)c1 [Example 27-b, N-Ethyl-N-methyl-sulphamic acid 4′-amino-4-(2,4-diamino-vyrimidin-5-ylmethyl)-6-ethoxy-3′-methyl-biphenyl-2-yl ester] | 190 | 2 (≈ 4.11 µM) | 1 (≈ 2.06 µM) | 14 |  |
| CCOc1cc(Cc2cnc(N)nc2N)cc(OCC)c1-c1ccc2[nH]ncc2c1 [Example 02-g, 5-[3,5-Diethoxy-4-(1H-indazol-5-yl)-benzyl]-pyrimidine-2,4-diamine] | 650 | 8 (≈ 19.8 µM) | 2 (≈ 4.94 µM) | 12 |  |
| CCOc1cc(Cc2cnc(N)nc2N)cc(OS(=O)(=O)N(C)CC)c1-c1ccc(N)cc1 [Example 22-b, N-Ethyl-N-methyl-sulphamic acid 4′-amino-4-(2,4-diamino-pyrimidin-5-ylmethyl)-6-ethoxy-biphenyl-2-yl ester] | 38 | 1 (≈ 2.12 µM) | 1 (≈ 2.12 µM) | 2.3 |  |
| CCOc1cc(Cc2cnc(N)nc2N)cc(OCC(C)(C)/C=C/C#N)c1-c1ccc(O)cc1 [Example 08-b, (E)-5-[4-(2,4-Diamino-pyrimidin-5-ylmethyl)-6-ethoxy-4′-hydroxy-biphenyl-2-yloxy]-4,4-dimethyl-pent-2-ene-nitrile] | 950 | 8 (≈ 17.4 µM) |  | 38 | 2 (≈ 4.35 µM) |
